From PMC7004140, “In vitro hepatotoxicity of Petasites hybridus extract (Ze 339) depends on the concentration, the cytochrome activity of the cell system, and the species used” (Phytotherapy Research, 2019)

Experiments:
Assay type in all cases: in vitro ADME
Settings in all cases: petasins 20 μM, 60 min
CYP3A1 (rat) = molecular target: T1, CYP3A1 (rat) (Rattus norvegicus, UniProt P04800); experiment: Metabolism by isolated rat CYP3A1
T1 construct: purchased BD Gentest (Switzerland); host or cells: baculovirus expression system
T1 sequence (P04800 1-504): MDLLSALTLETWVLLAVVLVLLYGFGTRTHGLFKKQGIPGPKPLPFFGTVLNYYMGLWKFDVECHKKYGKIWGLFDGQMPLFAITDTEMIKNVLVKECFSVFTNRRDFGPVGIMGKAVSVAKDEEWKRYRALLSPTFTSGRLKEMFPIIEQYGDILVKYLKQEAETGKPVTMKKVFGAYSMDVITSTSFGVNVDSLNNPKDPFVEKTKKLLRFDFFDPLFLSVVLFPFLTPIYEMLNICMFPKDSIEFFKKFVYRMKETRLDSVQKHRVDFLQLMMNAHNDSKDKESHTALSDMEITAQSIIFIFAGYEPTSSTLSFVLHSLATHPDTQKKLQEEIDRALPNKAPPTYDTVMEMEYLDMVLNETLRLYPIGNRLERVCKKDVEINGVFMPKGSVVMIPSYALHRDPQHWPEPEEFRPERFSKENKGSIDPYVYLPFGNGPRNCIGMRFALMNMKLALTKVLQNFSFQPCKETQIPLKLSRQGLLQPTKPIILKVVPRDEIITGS
Excerpt: (§1) The metabolism of petasin, isopetasin, and neopetasin was investigated using three different S9 fractions originating from three different species (isolated from rat, dog, and human liver homogenates containing cytochrome P450 isoforms) and isolated cytochromes of two different species (human and rat; rat analogues of the respective human cytochromes were used). For the expression of the different cytochromes, a baculovirus expression system was used according to supplier's manual. The S9 fractions or respectively single P450 cytochromes were used to mimic the liver metabolism by in vitro incubation.
(§2) The assay was carried out in triplicate in 1.5 ml glass vials with a final concentration of 20 μM of petasin, isopetasin, and neopetasin. The incubation was performed in a 37°C warm water bath. S9 fractions were thawed slowly on ice. […]
(§3) A mixture of NADPH regeneration systems A (20‐fold) and B (100‐fold), phosphate buffer, and H2O was added, preincubated at 37°C, and shaken gently for 5 min. […] The supernatant was transferred to high‐performance liquid chromatography vials and analyzed by ultra‐performance liquid chromatography mass spectrometry (UPLC/MS). […]

CYP1A2 (rat) = molecular target: T2, CYP1A2 (rat) (Rattus norvegicus, UniProt P04799); experiment: Metabolism by isolated rat CYP1A2
T2 construct: purchased BD Gentest (Switzerland); host or cells: baculovirus expression system
T2 sequence (P04799 1-513): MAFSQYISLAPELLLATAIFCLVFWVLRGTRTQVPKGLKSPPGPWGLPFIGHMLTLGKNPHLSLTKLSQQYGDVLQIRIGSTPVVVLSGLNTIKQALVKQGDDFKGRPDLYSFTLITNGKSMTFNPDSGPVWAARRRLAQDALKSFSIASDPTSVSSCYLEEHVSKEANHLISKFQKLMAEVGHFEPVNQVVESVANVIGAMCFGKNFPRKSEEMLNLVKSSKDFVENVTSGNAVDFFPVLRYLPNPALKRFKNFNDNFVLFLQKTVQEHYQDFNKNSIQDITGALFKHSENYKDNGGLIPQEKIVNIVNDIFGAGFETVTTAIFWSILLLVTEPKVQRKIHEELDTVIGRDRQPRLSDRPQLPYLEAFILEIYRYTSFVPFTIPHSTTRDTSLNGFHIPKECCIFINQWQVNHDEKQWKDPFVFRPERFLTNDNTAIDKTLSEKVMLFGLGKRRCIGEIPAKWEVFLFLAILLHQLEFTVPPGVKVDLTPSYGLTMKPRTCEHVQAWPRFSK
Excerpt: as §1, §2, §3

CYP2D6 (human) = molecular target: T3, CYP2D6 (human) (Homo sapiens, UniProt P10635); experiment: Metabolism by isolated human CYP2D6
T3 construct: purchased BD Gentest (Switzerland); host or cells: baculovirus expression system
Excerpt: as §1, §2, §3

CYP2C9 (human) = molecular target: T4, CYP2C9 (human) (Homo sapiens, UniProt P11712); experiment: Metabolism by isolated human CYP2C9
T4 construct: purchased BD Gentest (Switzerland); host or cells: baculovirus expression system
Excerpt: as §1, §2, §3

CYP3A2 (rat) = molecular target: T5, CYP3A2 (rat) (Rattus norvegicus, UniProt P05183); experiment: Metabolism by isolated rat CYP3A2
T5 construct: purchased BD Gentest (Switzerland); host or cells: baculovirus expression system
T5 sequence (P05183 1-504): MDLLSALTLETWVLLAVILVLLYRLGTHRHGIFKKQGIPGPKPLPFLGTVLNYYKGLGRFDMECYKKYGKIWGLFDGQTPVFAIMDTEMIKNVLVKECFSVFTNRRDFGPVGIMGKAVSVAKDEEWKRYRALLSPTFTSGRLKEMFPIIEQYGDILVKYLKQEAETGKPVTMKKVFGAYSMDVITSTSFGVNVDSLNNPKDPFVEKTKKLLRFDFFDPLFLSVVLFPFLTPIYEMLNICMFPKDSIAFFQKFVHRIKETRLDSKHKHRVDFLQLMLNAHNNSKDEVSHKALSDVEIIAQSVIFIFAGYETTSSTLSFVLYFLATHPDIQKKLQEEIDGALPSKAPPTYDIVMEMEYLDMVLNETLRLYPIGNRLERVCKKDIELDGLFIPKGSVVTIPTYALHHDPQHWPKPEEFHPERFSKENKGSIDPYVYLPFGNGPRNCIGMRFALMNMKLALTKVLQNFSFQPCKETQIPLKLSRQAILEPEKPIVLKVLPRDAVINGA
Excerpt: as §1, §2, §3

T3 sequence (P10635 whole entry): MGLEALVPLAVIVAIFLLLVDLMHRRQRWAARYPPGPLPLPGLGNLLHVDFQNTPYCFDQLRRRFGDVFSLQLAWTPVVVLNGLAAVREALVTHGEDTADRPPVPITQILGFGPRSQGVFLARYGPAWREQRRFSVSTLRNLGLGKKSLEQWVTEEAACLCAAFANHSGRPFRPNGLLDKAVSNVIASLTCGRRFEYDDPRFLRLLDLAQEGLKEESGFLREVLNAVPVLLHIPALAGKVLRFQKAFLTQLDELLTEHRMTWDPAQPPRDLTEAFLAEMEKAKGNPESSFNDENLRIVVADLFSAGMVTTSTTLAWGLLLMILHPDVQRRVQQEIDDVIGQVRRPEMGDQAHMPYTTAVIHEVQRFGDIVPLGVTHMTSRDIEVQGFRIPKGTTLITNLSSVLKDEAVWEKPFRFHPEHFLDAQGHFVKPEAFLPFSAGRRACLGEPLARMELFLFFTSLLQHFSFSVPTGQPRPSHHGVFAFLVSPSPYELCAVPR
T4 sequence (P11712 whole entry): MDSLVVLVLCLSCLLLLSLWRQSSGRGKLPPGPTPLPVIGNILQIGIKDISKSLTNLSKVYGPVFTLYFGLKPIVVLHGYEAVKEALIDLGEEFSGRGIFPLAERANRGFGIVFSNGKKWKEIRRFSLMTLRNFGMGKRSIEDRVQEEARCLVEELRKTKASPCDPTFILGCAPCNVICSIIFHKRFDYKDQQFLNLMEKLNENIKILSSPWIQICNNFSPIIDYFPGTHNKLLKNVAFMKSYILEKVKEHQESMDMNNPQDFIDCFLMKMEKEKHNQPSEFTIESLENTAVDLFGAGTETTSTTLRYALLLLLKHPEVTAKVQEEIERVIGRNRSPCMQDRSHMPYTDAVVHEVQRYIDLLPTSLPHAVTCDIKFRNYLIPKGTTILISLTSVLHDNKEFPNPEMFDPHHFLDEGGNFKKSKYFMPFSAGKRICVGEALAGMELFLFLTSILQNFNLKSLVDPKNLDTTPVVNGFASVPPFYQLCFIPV

| extent of metabolism by CYP3A1 (rat) (CYP3A1 (rat)) | extent of metabolism by CYP1A2 (rat) (CYP1A2 (rat)) | extent of metabolism by CYP2D6 (human) (CYP2D6 (human)) | extent of metabolism by CYP2C9 (human) (CYP2C9 (human)) | extent of metabolism by CYP3A2 (rat) (CYP3A2 (rat)) | Compound |
| --- | --- | --- | --- | --- | --- |
| 37% | 43% | 80.2% | 51% |  | C=C(C)[C@@H]1C[C@@]2(C)C(=CC1=O)CC[C@@H](OC(=O)/C(C)=C\C)[C@@H]2C [petasin] |
|  | < 1% |  |  | 73% | C/C=C(/C)C(=O)O[C@@H]1CCC2=CC(=O)C(=C(C)C)C[C@]2(C)[C@H]1C [isopetasin] |
| 78% |  |  |  | 46% | C=C(C)[C@H]1C[C@@]2(C)C(=CC1=O)CC[C@@H](OC(=O)/C(C)=C\C)[C@@H]2C [neopetasin] |
